Source: patent EP4722207A1, “OXOISOINDOLINYL-SUBSTITUTED TETRAHYDROPYRIMIDINEDIONE DERIVATIVE AND USE THEREOF” (Gluetacs Therapeutics (Shanghai) Co., Ltd., priority 2023, dated 2024)

How the values were obtained:
MM.1S = assay: Cell viability assay (CellTiter-Meiluncell Luminescent), tumor cell proliferation, MM.1S; details: Homo sapiens, MM1.S, 96 h; for inhibition at 0.01 µM: read-out: Inhibition Rate at 10 nM (%); for inhibition at 0.5 µM: read-out: Inhibition Rate at 500 nM (%)
Description: (§1) The tumor cells used herein were cultured in a cell culture medium listed in table 2 at 37°C in an incubator with 5% CO2. Prior to experimentation, all cell lines used were correctly identified by STR profiling, and tested negative for mycoplasma contamination using a mycoplasma detection kit through routine screenings.
(§2) On the following day, the test compounds of the present disclosure were subjected to serial dilution. […] Subsequently, 0.5 µL of the test compound dilution was transferred into the 96-well plate containing the cells, with each well containing 100 µL of cell culture medium. […] Into the 96-well plate, the diluted test compounds and corresponding detection reagents were added, resulting in final test compound concentrations of 500 nM and 10 nM, respectively. The experimental procedure is described below using the diluted 2 µM test compound as an example.
(§3) After the cells were treated with the compounds of the present disclosure for a specified period, the cell viability assay reagent was added to the culture medium according to the kit's instructions to determine cell viability. […] All controls were treated using the same procedure as the compounds of the present disclosure. The growth inhibition curves for the compounds of the present disclosure were plotted using Prism GraphPad software, and the IC50 values were calculated therefrom.

MV-4-11 = assay: Cell viability assay (CellTiter-Meiluncell Luminescent), tumor cell proliferation, MV-4-11; details: Homo sapiens, MV4-11, 96 h; for inhibition at 0.01 µM: read-out: Inhibition Rate at 10 nM (%); for inhibition at 0.5 µM: read-out: Inhibition Rate at 500 nM (%)
CK1α = molecular target: T1, CK1α (Homo sapiens, UniProt P48729+Q96SW2); assay: Western-blot assay, substrate protein degradation in hPBMCs: CK1α; assay type: cell-based; details: 24 hours of compound treatment, 50 nM and 500 nM
T1 construct: effects of the compounds of the present disclosure on the expression of target proteins in cells; endogenous in cells; host or cells: human PBMCs (hPBMCs)

IKZF3 = molecular target: T2, IKZF3 (Homo sapiens, UniProt Q96SW2+Q9UKT9); assay: Western-blot assay, substrate protein degradation in hPBMCs: IKZF3; assay type: cell-based; details: 24 hours of compound treatment, 50 nM and 500 nM
T2 construct: effects of the compounds of the present disclosure on the expression of target proteins in cells; endogenous in cells; host or cells: human PBMCs (hPBMCs)

WEE1 = molecular target: T3, WEE1 (Homo sapiens, UniProt P30291+Q96SW2); assay: Western-blot assay, substrate protein degradation in hPBMCs: WEE1; assay type: cell-based; details: 24 hours of compound treatment, 50 nM and 500 nM
T3 construct: effects of the compounds of the present disclosure on the expression of target proteins in cells; endogenous in cells; host or cells: human PBMCs (hPBMCs)

MDA-MB-231 = assay: Cell viability assay (CellTiter-Meiluncell Luminescent), tumor cell proliferation, MDA-MB-231; details: Homo sapiens, MDA-MB-231, 96 h; for inhibition at 0.01 µM: read-out: Inhibition Rate at 10 nM (%); for inhibition at 0.5 µM: read-out: Inhibition Rate at 500 nM (%)
GSPT1 = molecular target: T4, GSPT1 (Homo sapiens, UniProt P15170+Q96SW2); assay: Western-blot assay, substrate protein degradation in hPBMCs: GSPT1; assay type: cell-based; details: 24 hours of compound treatment, 50 nM and 500 nM
T4 construct: effects of the compounds of the present disclosure on the expression of target proteins in cells; endogenous in cells; host or cells: human PBMCs (hPBMCs)

IKZF2 = molecular target: T5, IKZF2 (Homo sapiens, UniProt Q96SW2+Q9UKS7); assay: Western-blot assay, substrate protein degradation in hPBMCs: IKZF2; assay type: cell-based; details: 24 hours of compound treatment, 50 nM and 500 nM
T5 construct: effects of the compounds of the present disclosure on the expression of target proteins in cells; endogenous in cells; host or cells: human PBMCs (hPBMCs)

H2228 = assay: Cell viability assay (CellTiter-Meiluncell Luminescent), tumor cell proliferation, H2228; details: Homo sapiens, NCI-H2228, 96 h; for inhibition at 0.01 µM: read-out: Inhibition Rate at 10 nM (%); for inhibition at 0.5 µM: read-out: Inhibition Rate at 500 nM (%)
Description: as §1, §2, §3

IKZF1 = molecular target: T6, IKZF1 (Homo sapiens, UniProt Q13422+Q96SW2); assay: Western-blot assay, substrate protein degradation in hPBMCs: IKZF1; assay type: cell-based; details: 24 hours of compound treatment, 50 nM and 500 nM
T6 construct: effects of the compounds of the present disclosure on the expression of target proteins in cells; endogenous in cells; host or cells: human PBMCs (hPBMCs)

H292 = assay: Cell viability assay (CellTiter-Meiluncell Luminescent), tumor cell proliferation, H292; details: Homo sapiens, NCI-H292, 96 h; for inhibition at 0.01 µM: read-out: Inhibition Rate at 10 nM (%); for inhibition at 0.5 µM: read-out: Inhibition Rate at 500 nM (%)

T4 sequence (P15170 whole entry): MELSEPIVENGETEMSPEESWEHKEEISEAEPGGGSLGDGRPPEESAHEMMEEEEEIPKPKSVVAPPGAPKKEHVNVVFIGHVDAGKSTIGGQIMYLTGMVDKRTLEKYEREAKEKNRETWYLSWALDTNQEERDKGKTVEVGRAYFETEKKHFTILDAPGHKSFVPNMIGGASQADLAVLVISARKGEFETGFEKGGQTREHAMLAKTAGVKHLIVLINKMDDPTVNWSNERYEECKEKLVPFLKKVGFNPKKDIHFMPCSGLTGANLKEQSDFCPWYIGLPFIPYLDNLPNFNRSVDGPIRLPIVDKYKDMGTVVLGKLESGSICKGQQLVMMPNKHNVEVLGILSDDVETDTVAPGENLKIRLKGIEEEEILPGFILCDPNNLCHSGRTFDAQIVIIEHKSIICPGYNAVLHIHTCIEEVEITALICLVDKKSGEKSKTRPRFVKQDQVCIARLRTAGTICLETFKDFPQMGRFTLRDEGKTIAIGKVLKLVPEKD
T4 sequence (Q96SW2 whole entry): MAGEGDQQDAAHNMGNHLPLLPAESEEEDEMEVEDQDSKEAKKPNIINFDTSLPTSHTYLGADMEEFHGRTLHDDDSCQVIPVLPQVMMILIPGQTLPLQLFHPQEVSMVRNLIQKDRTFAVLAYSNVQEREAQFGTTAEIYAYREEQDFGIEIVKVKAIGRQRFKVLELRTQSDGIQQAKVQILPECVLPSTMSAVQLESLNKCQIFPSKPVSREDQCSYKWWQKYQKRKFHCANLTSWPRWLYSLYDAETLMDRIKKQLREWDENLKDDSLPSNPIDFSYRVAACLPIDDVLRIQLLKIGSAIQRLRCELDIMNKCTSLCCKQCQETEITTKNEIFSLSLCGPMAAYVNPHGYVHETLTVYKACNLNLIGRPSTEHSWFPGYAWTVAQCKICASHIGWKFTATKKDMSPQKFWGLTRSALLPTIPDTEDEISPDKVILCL
T4 sequence (Q16531 whole entry partner): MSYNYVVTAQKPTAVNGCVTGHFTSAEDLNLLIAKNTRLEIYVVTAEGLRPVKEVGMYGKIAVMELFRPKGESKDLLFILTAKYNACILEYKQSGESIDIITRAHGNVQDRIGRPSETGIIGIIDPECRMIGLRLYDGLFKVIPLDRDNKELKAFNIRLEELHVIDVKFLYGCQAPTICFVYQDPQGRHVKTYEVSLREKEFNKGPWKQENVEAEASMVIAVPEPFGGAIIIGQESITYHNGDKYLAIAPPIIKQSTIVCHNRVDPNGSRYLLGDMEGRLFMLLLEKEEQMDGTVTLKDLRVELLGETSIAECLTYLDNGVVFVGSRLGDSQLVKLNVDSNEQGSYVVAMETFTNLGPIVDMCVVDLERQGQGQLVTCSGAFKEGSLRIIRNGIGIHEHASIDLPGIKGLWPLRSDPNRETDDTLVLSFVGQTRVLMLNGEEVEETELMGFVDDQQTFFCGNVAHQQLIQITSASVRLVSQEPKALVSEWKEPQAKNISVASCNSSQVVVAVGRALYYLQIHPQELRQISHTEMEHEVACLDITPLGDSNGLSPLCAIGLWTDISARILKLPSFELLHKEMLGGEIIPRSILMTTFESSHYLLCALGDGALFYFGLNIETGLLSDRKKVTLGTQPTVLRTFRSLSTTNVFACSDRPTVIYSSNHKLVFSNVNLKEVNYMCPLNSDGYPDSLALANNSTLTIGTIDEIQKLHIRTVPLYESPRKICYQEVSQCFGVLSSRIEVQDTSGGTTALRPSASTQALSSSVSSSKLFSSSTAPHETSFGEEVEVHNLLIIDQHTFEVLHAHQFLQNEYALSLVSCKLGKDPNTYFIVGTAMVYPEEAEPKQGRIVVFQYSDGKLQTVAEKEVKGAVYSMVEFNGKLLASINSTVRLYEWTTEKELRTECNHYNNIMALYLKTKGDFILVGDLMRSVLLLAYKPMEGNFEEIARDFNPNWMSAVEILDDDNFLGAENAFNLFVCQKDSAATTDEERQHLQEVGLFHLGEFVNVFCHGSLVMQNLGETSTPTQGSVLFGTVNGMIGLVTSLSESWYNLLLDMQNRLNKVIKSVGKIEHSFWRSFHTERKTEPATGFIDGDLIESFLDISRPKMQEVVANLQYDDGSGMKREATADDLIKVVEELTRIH
T6 sequence (Q13422 whole entry): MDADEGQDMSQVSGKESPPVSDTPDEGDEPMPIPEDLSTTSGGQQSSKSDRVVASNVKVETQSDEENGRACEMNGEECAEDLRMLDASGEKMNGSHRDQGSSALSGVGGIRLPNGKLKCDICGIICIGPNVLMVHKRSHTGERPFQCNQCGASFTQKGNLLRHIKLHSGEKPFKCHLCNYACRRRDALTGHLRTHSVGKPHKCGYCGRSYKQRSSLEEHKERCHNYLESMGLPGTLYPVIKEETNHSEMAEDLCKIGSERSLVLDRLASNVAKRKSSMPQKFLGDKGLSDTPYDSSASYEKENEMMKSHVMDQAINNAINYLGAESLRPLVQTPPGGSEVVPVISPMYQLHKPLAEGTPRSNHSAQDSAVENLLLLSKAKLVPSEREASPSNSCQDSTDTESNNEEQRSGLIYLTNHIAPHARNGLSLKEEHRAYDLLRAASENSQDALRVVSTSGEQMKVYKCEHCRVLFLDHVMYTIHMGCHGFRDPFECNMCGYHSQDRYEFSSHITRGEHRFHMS
T6 sequence (Q96SW2 whole entry): as the sequence (Q96SW2 whole entry) above
T6 sequence (Q16531 whole entry partner): as the sequence (Q16531 whole entry partner) above
T2 sequence (Q9UKT9 whole entry): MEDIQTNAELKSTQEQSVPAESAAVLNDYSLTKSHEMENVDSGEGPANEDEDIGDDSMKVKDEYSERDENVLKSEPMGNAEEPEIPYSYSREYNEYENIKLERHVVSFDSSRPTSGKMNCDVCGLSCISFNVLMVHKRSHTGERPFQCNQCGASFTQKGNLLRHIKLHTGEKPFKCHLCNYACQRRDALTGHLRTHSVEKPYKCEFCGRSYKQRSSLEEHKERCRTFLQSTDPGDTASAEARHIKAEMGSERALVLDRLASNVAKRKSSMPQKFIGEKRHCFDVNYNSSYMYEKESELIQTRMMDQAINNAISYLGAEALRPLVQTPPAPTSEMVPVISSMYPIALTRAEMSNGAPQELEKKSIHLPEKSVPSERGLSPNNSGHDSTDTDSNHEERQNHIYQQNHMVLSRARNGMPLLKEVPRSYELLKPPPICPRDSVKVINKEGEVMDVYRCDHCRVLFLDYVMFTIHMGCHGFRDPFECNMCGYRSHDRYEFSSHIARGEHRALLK
T2 sequence (Q96SW2 whole entry): as the sequence (Q96SW2 whole entry) above
T2 sequence (Q16531 whole entry partner): as the sequence (Q16531 whole entry partner) above
T1 sequence (P48729 whole entry): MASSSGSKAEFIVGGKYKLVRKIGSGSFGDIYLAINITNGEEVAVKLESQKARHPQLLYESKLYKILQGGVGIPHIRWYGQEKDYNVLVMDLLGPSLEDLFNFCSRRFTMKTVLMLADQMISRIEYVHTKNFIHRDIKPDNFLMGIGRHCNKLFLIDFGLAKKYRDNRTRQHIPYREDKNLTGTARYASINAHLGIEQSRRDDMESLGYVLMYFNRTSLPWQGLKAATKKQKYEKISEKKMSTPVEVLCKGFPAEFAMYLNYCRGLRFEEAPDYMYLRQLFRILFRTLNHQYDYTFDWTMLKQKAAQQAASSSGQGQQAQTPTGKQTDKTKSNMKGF
T1 sequence (Q96SW2 whole entry): as the sequence (Q96SW2 whole entry) above
T1 sequence (Q16531 whole entry partner): as the sequence (Q16531 whole entry partner) above
T5 sequence (Q9UKS7 whole entry): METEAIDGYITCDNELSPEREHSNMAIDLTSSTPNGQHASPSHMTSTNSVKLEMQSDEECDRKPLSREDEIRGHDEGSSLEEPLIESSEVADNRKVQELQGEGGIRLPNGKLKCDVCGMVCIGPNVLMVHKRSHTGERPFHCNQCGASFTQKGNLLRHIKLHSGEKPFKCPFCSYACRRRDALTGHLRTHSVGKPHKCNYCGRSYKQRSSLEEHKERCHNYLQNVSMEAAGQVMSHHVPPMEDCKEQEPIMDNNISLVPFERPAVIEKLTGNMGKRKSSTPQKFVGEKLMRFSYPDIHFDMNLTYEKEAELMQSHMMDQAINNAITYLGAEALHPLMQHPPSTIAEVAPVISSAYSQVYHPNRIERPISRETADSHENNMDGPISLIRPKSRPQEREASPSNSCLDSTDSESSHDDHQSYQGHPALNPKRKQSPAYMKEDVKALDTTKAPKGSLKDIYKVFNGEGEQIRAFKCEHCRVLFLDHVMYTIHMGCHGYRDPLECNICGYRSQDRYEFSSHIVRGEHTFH
T5 sequence (Q96SW2 whole entry): as the sequence (Q96SW2 whole entry) above
T5 sequence (Q16531 whole entry partner): as the sequence (Q16531 whole entry partner) above

Row | Structure (SMILES) | inhibition at 0.01 µM (MM.1S) | inhibition at 0.5 µM (MM.1S) | inhibition at 0.01 µM (MV-4-11) | inhibition at 0.5 µM (MV-4-11) | substrate protein remaining % CK1α (CK1α) | substrate protein remaining % IKZF3 (IKZF3) | substrate protein remaining % WEE1 (WEE1) | inhibition at 0.01 µM (MDA-MB-231) | inhibition at 0.5 µM (MDA-MB-231) | substrate protein remaining % GSPT1 (GSPT1) | substrate protein remaining % IKZF2 (IKZF2) | inhibition at 0.01 µM (H2228) | inhibition at 0.5 µM (H2228) | substrate protein remaining % IKZF1 (IKZF1) | inhibition at 0.01 µM (H292) | inhibition at 0.5 µM (H292)
1 | O=C1CCN(N2Cc3cc(CN4CC=C(c5cccc(F)c5Cl)CC4)ccc3C2=O)C(=O)N1 [GT-08055, 1-(5-((4-(2-chloro-3-fluorophenyl)-3,6-dihydropyridin-1(2H)-yl)methyl)-1-oxoisoindolin-2-yl)dihydropyrimidine-2,4(1H,3H)-dione] | -10 to -5% | 80 to 100% | 25 to 30% | 80 to 100% | A (0% ≤ substrate protein remaining % ≤ 80%) | A (0% ≤ substrate protein remaining % ≤ 80%) | A (0% ≤ substrate protein remaining % ≤ 80%) | 18 to 25% | 60 to 80% | A (0% ≤ substrate protein remaining % ≤ 80%) | A (0% ≤ substrate protein remaining % ≤ 80%) | 10 to 15% | 20 to 25% | A (0% ≤ substrate protein remaining % ≤ 80%) |  | 
2 | O=C1CCN(N2Cc3cc(CN4CCC(c5ncnc6sc(-c7ccccc7)cc56)CC4)ccc3C2=O)C(=O)N1 [GT-08085, 1-(1-oxo-5-((4-(6-phenylthieno[2,3-d]pyrimidin-4-yl)piperidin-1-yl)methyl)isoindolin-2-yl)dihydropyrimidine-2,4(1H,3H)-dione] | 30 to 42% | 42 to 60% | 30 to 40% | 25 to 30% | A (0% ≤ substrate protein remaining % ≤ 80%) | B (80%< substrate protein remaining %≤ 100%) | B (80%< substrate protein remaining %≤ 100%) | 25 to 40% | 40 to 60% | A (0% ≤ substrate protein remaining % ≤ 80%) | B (80%< substrate protein remaining %≤ 100%) | 25 to 30% | 30 to 40% | B (80%< substrate protein remaining %≤ 100%) | 20 to 40% | 40 to 60%
3 | Cc1nc(C2CCN(Cc3ccc4c(c3)CN(N3CCC(=O)NC3=O)C4=O)CC2)c2ccsc2n1 [GT-08088, 1-(5-((4-(2-methylthieno[2,3-d]pyrimidin-4-yl)piperidin-1-yl)methyl)-1-oxoisoindolin-2-yl)dihydropyrimidine-2,4(1H,3H)-dione] | 42 to 60% | 42 to 60% | 40 to 60% | 30 to 40% | A (0% ≤ substrate protein remaining % ≤ 80%) | B (80%< substrate protein remaining %≤ 100%) | A (0% ≤ substrate protein remaining % ≤ 80%) | 18 to 25% | 25 to 40% | A (0% ≤ substrate protein remaining % ≤ 80%) | B (80%< substrate protein remaining %≤ 100%) | 25 to 30% | 25 to 30% | B (80%< substrate protein remaining %≤ 100%) | 20 to 40% | 20 to 40%
4 | O=C1CCN(N2C(=O)c3ccc(CN4CCN(c5ncnc6sccc56)CC4)cc3C2=O)C(=O)N1 [GT-08090, 2-(2,4-dioxotetrahydropyrimidin-1(2H)-yl)-5-((4-(thieno[2,3-d]pyrimidin-4-yl)piperazin-1-yl)methyl)isoindoline-1,3-dione] | 30 to 42% | 42 to 60% | 60 to 80% | 60 to 80% | A (0% ≤ substrate protein remaining % ≤ 80%) | B (80%< substrate protein remaining %≤ 100%) | A (0% ≤ substrate protein remaining % ≤ 80%) | 15 to 18% | 18 to 25% | A (0% ≤ substrate protein remaining % ≤ 80%) | B (80%< substrate protein remaining %≤ 100%) | 20 to 25% | 20 to 25% | B (80%< substrate protein remaining %≤ 100%) | 15 to 20% | 15 to 20%
5 | O=C1CCN(N2Cc3cc(CN4CC=C(c5ncnc6sccc56)CC4)ccc3C2=O)C(=O)N1 [GT-08116, 1-(1-oxo-5-((4-(thieno[2,3-d]pyrimidin-4-yl)-3,6-dihydropyridin-1(2H)-yl)methyl)isoindolin-2-yl)dihydropyrimidine-2,4(1H,3H)-dione] | 10 to 20% | 60 to 80% | 40 to 60% | 80 to 100% | A (0% ≤ substrate protein remaining % ≤ 80%) | A (0% ≤ substrate protein remaining % ≤ 80%) | A (0% ≤ substrate protein remaining % ≤ 80%) | 25 to 40% | 25 to 40% | A (0% ≤ substrate protein remaining % ≤ 80%) | B (80%< substrate protein remaining %≤ 100%) | 15 to 20% | 20 to 25% | A (0% ≤ substrate protein remaining % ≤ 80%) | 15 to 20% | 15 to 20%
6 | CC(C)c1cc2c(C3=CCN(Cc4ccc5c(c4)CN(N4CCC(=O)NC4=O)C5=O)CC3)ncnc2s1 [GT-08158, 1-(5-((4-(6-isopropylthieno[2,3-d]pyrimidin-4-yl)-3,6-dihydropyridin-1(2H)-yl)methyl)-1-oxoisoindolin-2-yl)dihydropyrimidine-2,4(1H,3H)-dione] | 5 to 10% | 80 to 100% | 30 to 40% | 100 to 110% |  |  |  | 18 to 25% | 80 to 100% |  |  | 25 to 30% | 60 to 80% |  | 20 to 40% | 40 to 60%
7 | Cc1sc2ncnc(C3=CCN(Cc4ccc5c(c4)CN(N4CCC(=O)NC4=O)C5=O)CC3)c2c1C [GT-08159, 1-(5-((4-(5,6-dimethylthieno[2,3-d]pyrimidin-4-yl)-3,6-dihydropyridin-1(2H)-yl)methyl)-1-oxoisoindolin-2-yl)dihydropyrimidine-2,4(1H,3H)-dione] | 0 to 5% | 60 to 80% | 30 to 40% | 80 to 100% |  |  |  | 10 to 15% | 18 to 25% |  |  | 10 to 15% | 25 to 30% |  | 15 to 20% | 20 to 40%
8 | Nc1cccc2c1CN(C1CCC(=O)NC1=O)C2=O (stereo not drawn) [lenalidomide, reference compound] | 10 to 20% | 30 to 42% | 10 to 18% | 10 to 18% |  |  |  | 15 to 18% | 10 to 15% |  |  | 20 to 25% | 15 to 20% |  | 0 to 1% | 5 to 10%
